Test results as given in patent publication US12544348B2, “Methods for treating APOE4/4-associated disorders” (The Regents of the University of California, priority 2018, dated 2026).

Test system: apoE3-KI mice
Test: Morris water maze (MWM) spatial learning and memory, aged apoE3-KI mice
Type: in vivo
Conditions: for short-term memory, 24-hour probe trial: vs vehicle-treated apoE3-KI
Description: Mice. All protocols and procedures followed the guidelines of the Laboratory Animal Resource Center at the University of California, San Francisco (UCSF). All mice were housed under identical conditions from birth through death (12-hour light/dark cycle, housed 5/cage, PicoLab Rodent Diet 20). All mouse lines were maintained on a C57Bl/6J background. ApoE3-KI and apoE4-KI homozygous mouse lines (Taconic)^30,31 were born and aged under normal conditions at the Gladstone Institutes/UCSF animal facility. Female apoE-KI mice were used because of their susceptibility to AD-related neuronal and behavioral deficits. The ages of the mice are indicated in the behavioral testing section of the online methods. Bumetanide treatment. Bumetanide was prepared at 220 μM in 2% DMSO in 0.9% sterile saline, adjusted to pH 8.5 with NaOH for solubility, and given by i.p. injection daily starting 6 weeks before and continuing throughout behavioral assessment. Body weight was measured weekly during bumetanide treatment; injection volume was calculated to achieve a dose of 0.02 (low) or 0.2 (high) mg bumetanide/kg body mass (e.g., 50-ul daily injection for a 20-g mouse). Control mice were injected with a matched volume of 2% DMSO in 0.9% sterile saline, pH 8.5. […] Behavioral testing. Mice were singly housed before testing. Each mouse was assigned a random number, so researchers were blinded to genotype and treatment information. At about 14 months of age, apoE3-KI and apoE4-KI mice were randomly assigned to treatment groups: apoE3-KI vehicle (n=10, age 14.01±0.44 months), apoE3-KI low bumetanide (n=11, age 14.30±0.33 months), apoE3-KI high bumetanide (n=10, age 13.74±0.22 months), apoE4-KI vehicle (n=10, age 14.10±0.35), apoE4-KI low bumetanide (n=10, age 14.70±0.27 months), apoE4-KI high bumetanide (n=9, age 13.77±0.28 months). Treatment was administered daily by i.p. injection beginning 6 weeks before and continuing throughout the 14 days of testing in the Morris water maze (MWM); injections were given at the end of the light cycle and after the day's test. The MWM pool (diameter, 122 cm) contained opaque water (22-23° C.) with a platform 10 cm in diameter. The platform was submerged 1.5 cm during hidden platform sessions^20-23,32 and marked with black-and-white-striped mast (15 cm high) during cued training sessions. Mice were trained to locate the hidden platform (hidden days 1-5) and the cued platform (visible days 1-3) in two daily sessions (3.5 h apart), each consisting of two 60-s trials (hidden and cued training) with a 15-min intertrial interval. Distal visual cues on the walls of the behavioral testing room remained constant throughout the test. Visible trials took place after training and memory probes and were 60 seconds long with a cued visible platform. The platform location remained constant in the hidden platform sessions but was changed for each cued (visible) platform session. Entry points were changed semirandomly between trials. At 24, 72, and 120 hours after the last hidden platform training, a 60-s probe trial (platform removed) was done. The entry point for the probe trial was in the southwest quadrant, and the target quadrant was the northeast quadrant. Performance was monitored with an Etho Vision video-tracking system (Noldus Information Technology). For the probe trials, the following analyses were performed (1) the percent time spent in the target quadrant versus average time spent in the three other quadrants, (2) the number of crossings over the position of the target platform versus the average number of crossings over the equivalent positions in the three other quadrants and (3) the distance to platform over the first 10 seconds. Statistical analyses. Behavior metrics are expressed as mean±SEM. All values for n are the numbers of mice or biological replicates. The distribution of data was assessed with the Shapiro-Wilk normality test; most of the data were normally distributed. […]

[1] = apoE3-KI mice, high dose 0.2 mg/kg daily i.p. 8 weeks
[2] = apoE3-KI mice, low dose 0.02 mg/kg daily i.p. 8 weeks

With CCCCNc1cc(C(=O)O)cc(S(N)(=O)=O)c1Oc1ccccc1 [bumetanide, 3-(butylamino)-4-phenoxy-5-sulfamoylbenzoic acid] the “long-term memory, 120-hour probe trial (summary paragraph, dose not stated)” value (aged apoE3-KI mice, dose not stated, vehicle-treated apoE3-KI mice did not) was “remembered the hidden platform location”, the “learning curve (escape latency) in hidden platform trials” value (apoE3-KI mice, 0.02 or 0.2 mg/kg daily i.p. 8 weeks, vs vehicle, learning days 1-5) was “did not differ” and the “long-term memory, 120-hour probe trial” value [1] was “forgot the hidden platform location”. For the same molecule, the “platform crossings in target quadrant versus other quadrants, 24-hour probe trial” value [1] was “not apoE3-KI mice”, the “platform crossings in target quadrant versus other quadrants, 120-hour probe trial” value [1] was “not apoE3-KI mice” and the “short-term memory, 24-hour probe trial” value [1] was “impaired short-term memory”. For the same molecule, the “long-term memory, 120-hour probe trial” value [2] was “forgot the hidden platform location” and the “short-term memory, 24-hour probe trial” value [2] was “performed equally well”.
